Measured values reported in patent US20170190671A1, “BIS(ARYL)CATECHOL DERIVATIVES AS HERBICIDES” (E I DU PONT DE NEMOURS AND COMPANY, priority 2014, published 2017).

What was measured:
[1] = system: pigweed (Amaranthus retroflexus); test: Test C preemergence; type: in vivo; settings: Amaranthus retroflexus, pre-emergence, 336 h, preemergence, scale 0 to 100, read-out: Plant response rating, Pigweed
Method in brief: (§1)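 Visual ratings (0 none to 100 complete control) were made 13 to 15 days after treatment, relative to controls. Test chemicals, formulated in a non-phytotoxic solvent mixture with surfactant, were applied in the greenhouse preemergence to seeded loam-sand soil or postemergence to plants 2 to 18 cm tall.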

soybean (Glycine max) = test: Test C preemergence; type: in vivo; settings: Glycine max, pre-emergence, preemergence, scale 0 to 100, read-out: Plant response rating, Soybean
Method in brief: as §1

[2] = system: galium (catchweed bedstraw, Galium aparine); test: Test C preemergence; type: in vivo; settings: Galium, pre-emergence, 336 h, preemergence, scale 0 to 100, read-out: Plant response rating, Galium
Method in brief: as §1

[3] = system: winter wheat (Triticum aestivum); test: Test C preemergence; type: in vivo; settings: Triticum aestivum, pre-emergence, 336 h, preemergence, scale 0 to 100, read-out: Plant response rating, Wheat
Method in brief: as §1

[4] = system: yellow nutsedge (Cyperus esculentus); test: Test C preemergence; type: in vivo; settings: Cyperus, pre-emergence, 336 h, preemergence, scale 0 to 100, read-out: Plant response rating, Nutsedge, Yellow
Method in brief: as §1

[5] = system: morningglory (Ipomoea coccinea); test: Test C preemergence; type: in vivo; settings: Ipomoea, pre-emergence, 336 h, preemergence, scale 0 to 100, read-out: Plant response rating, Morningglory
Method in brief: as §1

[6] = system: large (Lg) crabgrass (Digitaria sanguinalis); test: Test C preemergence; type: in vivo; settings: Digitaria sanguinalis, pre-emergence, 336 h, preemergence, scale 0 to 100, read-out: Plant response rating, Crabgrass, Large
Method in brief: as §1

[7] = system: ragweed (common ragweed, Ambrosia elatior); test: Test C preemergence; type: in vivo; settings: Ambrosia artemisiifolia, pre-emergence, 336 h, preemergence, scale 0 to 100, read-out: Plant response rating, Ragweed
Method in brief: as §1

[8] = system: barnyardgrass (Echinochloa crus-galli); test: Test C preemergence; type: in vivo; settings: Echinochloa crus-galli, pre-emergence, preemergence, scale 0 to 100, read-out: Plant response rating, Barnyardgrass
Method in brief: as §1

[9] = system: velvetleaf (Abutilon theophrasti); test: Test C preemergence; type: in vivo; settings: Abutilon theophrasti, pre-emergence, preemergence, scale 0 to 100, read-out: Plant response rating, Velvetleaf
Method in brief: as §1

[10] = system: giant foxtail (Setaria faberii); test: Test C preemergence; type: in vivo; settings: Setaria faberi, pre-emergence, 336 h, preemergence, scale 0 to 100, read-out: Plant response rating, Foxtail, Giant
Method in brief: as §1

corn (Zea mays) = test: Test C preemergence; type: in vivo; settings: Zea mays, pre-emergence, 336 h, preemergence, scale 0 to 100
Method in brief: as §1

[11] = system: blackgrass (Alopecurus myosuroides); test: Test C preemergence; type: in vivo; settings: Alopecurus myosuroides, pre-emergence, 336 h, preemergence, scale 0 to 100, read-out: Plant response rating, Blackgrass
Method in brief: as §1

[12] = system: johnsongrass (Sorghum halepense); test: Test C preemergence; type: in vivo; settings: Sorghum halepense, pre-emergence, 336 h, preemergence, scale 0 to 100, read-out: Plant response rating, Johnsongrass
Method in brief: as §1

[13] = system: lambsquarters (Chenopodium album); test: Test C preemergence; type: in vivo; settings: Chenopodium album, pre-emergence, 336 h, preemergence, scale 0 to 100, read-out: Plant response rating, Lambsquarters
Method in brief: as §1

[14] = system: oilseed rape (Brassica napus); test: Test C preemergence; type: in vivo; settings: Brassica napus, pre-emergence, preemergence, scale 0 to 100, read-out: Plant response rating, Oilseed Rape
Method in brief: as §1

[15] = system: galium (catchweed bedstraw, Galium aparine); test: Test C postemergence; type: in vivo; settings: Galium, post-emergence, 336 h, Postemergence, scale 0 to 100, read-out: Plant response rating, Galium
Method in brief: as §1

[16] = system: winter wheat (Triticum aestivum); test: Test C postemergence; type: in vivo; settings: Triticum aestivum, post-emergence, 336 h, Postemergence, scale 0 to 100, read-out: Plant response rating, Wheat
Method in brief: as §1

[17] = system: morningglory (Ipomoea coccinea); test: Test C postemergence; type: in vivo; settings: Ipomoea, post-emergence, 336 h, Postemergence, scale 0 to 100, read-out: Plant response rating, Morningglory
Method in brief: as §1

[18] = system: large (Lg) crabgrass (Digitaria sanguinalis); test: Test C postemergence; type: in vivo; settings: Digitaria sanguinalis, post-emergence, 336 h, Postemergence, scale 0 to 100, read-out: Plant response rating, Crabgrass, Large
Method in brief: as §1

kochia (Kochia scoparia) = test: Test C postemergence; type: in vivo; settings: Bassia scoparia, post-emergence, Postemergence, scale 0 to 100, read-out: Plant response rating, Kochia
Method in brief: as §1

[19] = system: velvetleaf (Abutilon theophrasti); test: Test C postemergence; type: in vivo; settings: Abutilon theophrasti, post-emergence, Postemergence, scale 0 to 100, read-out: Plant response rating, Velvetleaf
Method in brief: as §1

## Fc1cccc(Oc2ncc(Cl)cn2)c1Oc1ncc(Br)cn1 [Compound 27, 5-bromo-2-[2-fluoro-6-[(5-chloro-2-pyrimidinyl)oxy]phenoxy]pyrimidine]
[1]; 31 g ai/ha
  pest or weed control at 31 g/ha: 100%
[1]; 62 g ai/ha
  pest or weed control at 62 g/ha: 100%
[1]; 125 g ai/ha
  pest or weed control at 125 g/ha: 100%
Soybean (Glycine max); 31 g ai/ha
  plant injury at 31 g/ha: 40%
Soybean (Glycine max); 250 g ai/ha
  plant injury at 250 g/ha: 90%
[2]; 31 g ai/ha
  pest or weed control at 31 g/ha: 100%
[2]; 62 g ai/ha
  pest or weed control at 62 g/ha: 100%
[2]; 125 g ai/ha
  pest or weed control at 125 g/ha: 100%
[3]; 31 g ai/ha
  plant injury at 31 g/ha: 0%
[3]; 62 g ai/ha
  plant injury at 62 g/ha: 5%
[3]; 125 g ai/ha
  plant injury at 125 g/ha: 40%
[3]; 250 g ai/ha
  plant injury at 250 g/ha: 85%
[4]; 31 g ai/ha
  pest or weed control at 31 g/ha: 0%
[4]; 62 g ai/ha
  pest or weed control at 62 g/ha: 0%
[4]; 125 g ai/ha
  pest or weed control at 125 g/ha: 55%
[5]; 31 g ai/ha
  pest or weed control at 31 g/ha: 5%
[5]; 62 g ai/ha
  pest or weed control at 62 g/ha: 40%
[5]; 125 g ai/ha
  pest or weed control at 125 g/ha: 98%
[6]; 31 g ai/ha
  pest or weed control at 31 g/ha: 98%
[6]; 62 g ai/ha
  pest or weed control at 62 g/ha: 98%
[6]; 125 g ai/ha
  pest or weed control at 125 g/ha: 100%
[7]; 31 g ai/ha
  pest or weed control at 31 g/ha: 20%
[7]; 62 g ai/ha
  pest or weed control at 62 g/ha: 60%
[7]; 125 g ai/ha
  pest or weed control at 125 g/ha: 70%
[7]; 250 g ai/ha
  pest or weed control at 250 g/ha: 85%
[8]; 31 g ai/ha
  pest or weed control at 31 g/ha: 55%
[8]; 62 g ai/ha
  pest or weed control at 62 g/ha: 100%
[8]; 125 g ai/ha
  pest or weed control at 125 g/ha: 100%
[8]; 250 g ai/ha
  pest or weed control at 250 g/ha: 100%
[9]; 31 g ai/ha
  pest or weed control at 31 g/ha: 60%
[9]; 62 g ai/ha
  pest or weed control at 62 g/ha: 95%
[9]; 125 g ai/ha
  pest or weed control at 125 g/ha: 100%
[9]; 250 g ai/ha
  pest or weed control at 250 g/ha: 100%
[10]; 31 g ai/ha
  pest or weed control at 31 g/ha: 80%
[10]; 62 g ai/ha
  pest or weed control at 62 g/ha: 100%
[10]; 125 g ai/ha
  pest or weed control at 125 g/ha: 100%
Corn (Zea mays); 31 g ai/ha
  Corn plant response rating (crop injury, 0 = no effect, 100 = complete kill) at 31 g/ha: 10%
Corn (Zea mays); 62 g ai/ha
  Corn plant response rating (crop injury, 0 = no effect, 100 = complete kill) at 62 g/ha: 45%
Corn (Zea mays); 125 g ai/ha
  Corn plant response rating (crop injury, 0 = no effect, 100 = complete kill) at 125 g/ha: 60%
[11]; 31 g ai/ha
  pest or weed control at 31 g/ha: 15%
[11]; 62 g ai/ha
  pest or weed control at 62 g/ha: 60%
[11]; 125 g ai/ha
  pest or weed control at 125 g/ha: 90%
[12]; 31 g ai/ha
  pest or weed control at 31 g/ha: 25%
[12]; 62 g ai/ha
  pest or weed control at 62 g/ha: 55%
[12]; 125 g ai/ha
  pest or weed control at 125 g/ha: 75%
[13]; 31 g ai/ha
  pest or weed control at 31 g/ha: 80%
[13]; 62 g ai/ha
  pest or weed control at 62 g/ha: 85%
[13]; 125 g ai/ha
  pest or weed control at 125 g/ha: 100%
[14]; 31 g ai/ha
  plant injury at 31 g/ha: 85%
[14]; 62 g ai/ha
  plant injury at 62 g/ha: 100%
[14]; 125 g ai/ha
  plant injury at 125 g/ha: 100%
[14]; 250 g ai/ha
  plant injury at 250 g/ha: 100%
other
  melting point: 145 to 148 °C
[15]; 31 g ai/ha
  pest or weed control at 31 g/ha: 70%
[15]; 62 g ai/ha
  pest or weed control at 62 g/ha: 90%
[15]; 125 g ai/ha
  pest or weed control at 125 g/ha: 95%
[15]; 250 g ai/ha
  pest or weed control at 250 g/ha: 95%
[16]; 31 g ai/ha
  plant injury at 31 g/ha: 0%
[16]; 62 g ai/ha
  plant injury at 62 g/ha: 0%
[16]; 125 g ai/ha
  plant injury at 125 g/ha: 0%
[16]; 250 g ai/ha
  plant injury at 250 g/ha: 0%
[17]; 31 g ai/ha
  pest or weed control at 31 g/ha: 65%
[17]; 62 g ai/ha
  pest or weed control at 62 g/ha: 75%
[17]; 125 g ai/ha
  pest or weed control at 125 g/ha: 70%
[17]; 250 g ai/ha
  pest or weed control at 250 g/ha: 90%
[18]; 31 g ai/ha
  pest or weed control at 31 g/ha: 5%
[18]; 62 g ai/ha
  pest or weed control at 62 g/ha: 5%
[18]; 125 g ai/ha
  pest or weed control at 125 g/ha: 10%
[18]; 250 g ai/ha
  pest or weed control at 250 g/ha: 20%
Kochia (Kochia scoparia); 31 g ai/ha
  pest or weed control at 31 g/ha: 40%
Kochia (Kochia scoparia); 62 g ai/ha
  pest or weed control at 62 g/ha: 80%
Kochia (Kochia scoparia); 125 g ai/ha
  pest or weed control at 125 g/ha: 85%
Kochia (Kochia scoparia); 250 g ai/ha
  pest or weed control at 250 g/ha: 95%
[19]; 31 g ai/ha
  pest or weed control at 31 g/ha: 15%
[19]; 62 g ai/ha
  pest or weed control at 62 g/ha: 35%
[19]; 125 g ai/ha
  pest or weed control at 125 g/ha: 65%
[19]; 250 g ai/ha
  pest or weed control at 250 g/ha: 65%
